Drawing on PubChem BioAssay (NCI), this text covers TGI for two compounds.

Each structure is given as a SMILES string.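 These data come from cells grown in 96-well plates and exposed to compound for 48 hours at five concentrations. TGI is the concentration that stops growth completely.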 Where only a bound is given, the exact number is not on record here.

Common to all, as to assay: NCI-60 cell line screen, 48 h
The test system of experiment [1] is T-47D breast.
Experiment [2] concerns HOP-92 NSCLC.
The test system of experiment [3] is RPMI-8226 leukemia.
Experiment [4] concerns PC-3 prostate.
Experiment [5] deals with SF-539 CNS.
In experiment [6] the test system is CCRF-CEM leukemia.
Experiment [7] concerns SK-MEL-5 melanoma.
Experiment [8] concerns MDA-MB-231 breast.
The test system of experiment [9] is K-562 leukemia.
For experiment [10], the system named is CAKI-1 renal.
The subject of experiment [11] is ACHN renal.
For experiment [12], the system named is IGROV1 ovarian.
Experiment [13] relates to SR leukemia.
Experiment [14] concerns SK-OV-3 ovarian.
In experiment [15] the test system is NCI-H522 lung.
The subject of experiment [16] is MDA-N.
Experiment [17] relates to SF-295 CNS.
In experiment [18] the test system is UO-31 renal.
In experiment [19] the test system is HOP-62 NSCLC.
The test system of experiment [20] is HS 578T breast.

As for `CC[C@H](CCCC[C@H]1CC[C@@H]2CC(=O)C[C@H]12)OC`, the TGI in [1], in [2], in experiment [3], in [4], in experiment [5] and in experiment [6] was > 100 µM each time. Moreover, the TGI was 93 µM in experiment [7]; > 100 µM in experiment [8]; 55.2 µM in [9]; > 100 µM in experiment [10]; > 100 µM in experiment [11]; > 100 µM in experiment [12]. Besides, the TGI in experiment [13], in experiment [14], in experiment [15], in experiment [16], in experiment [17] and in [18] was > 100 µM each time. Further, the TGI in [19] and in [20] was > 100 µM in each case.
Take `CN(Cc1ccccc1)C(=NC#N)N(Cc1ccccc1)Cc1ccccc1`: the TGI in [1] is > 100 µM; in [2], 55.1 µM; in experiment [3] it was 55.4 µM; in experiment [4], 39.5 µM; in experiment [5], 39.7 µM; in experiment [6], > 100 µM. Besides, the TGI in experiment [7] was 33.3 µM; in experiment [8], 58.7 µM; in [9], > 100 µM; in experiment [10], 58.6 µM; in [11] it was 78.3 µM; in experiment [12], > 80.6 µM. The TGI in experiment [13] was > 100 µM; in experiment [14], > 90.3 µM; in [15] it was 55.5 µM; in experiment [16] it was 39.6 µM; in [17], 47.4 µM; in experiment [18], > 84.2 µM. Also, the TGI in [19] is 84.8 µM; in experiment [20], > 100 µM.
